# ± gives the standard deviation of the averaged measurements.
# Columns and labels:
# [1] = compound: CC(=O)NCC(=O)N1[C@@H]2CC[C@H]1c1ccc(Nc3ncc(C(F)(F)F)c(NC4CCC4)n3)cc12; experiment: surviving fraction relative to DMSO-only wells; higher = less growth inhibition; conditions: exposure time: 5 days
# Method in brief: (§1)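 Viability values are CellTiter-Glo luminescence readings, given as surviving fraction against the median of DMSO-only wells. The readings were taken after 10 minutes at room temperature, following five days of continuous exposure to inhibitors at 0.5, 1, 5, 10, 50, 100, 500 and 1000 nM that began 24 hours after log-phase tumour cell lines were seeded at 250–500 cells per well in 384-well plates. Every line was screened three times and kept only if replicate Pearson r >0.7 and median Z' >0.3.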
# CELECOXIB [2] = compound: T1, Cc1ccc(-c2cc(C(F)(F)F)nn2-c2ccc(S(N)(=O)=O)cc2)cc1 [CELECOXIB]; experiment: as above; conditions: exposure time: 5 days
# Method in brief: as §1
# GEFITINIB [3] = compound: T2, COc1cc2ncnc(Nc3ccc(F)c(Cl)c3)c2cc1OCCCN1CCOCC1 [GEFITINIB]; experiment: as above; conditions: exposure time: 5 days
# Method in brief: as §1
# YM155 [4] = compound: T3, COCC[n+]1c2c(n(Cc3cnccn3)c1C)C(=O)c1ccccc1C2=O [YM155]; experiment: as above; conditions: exposure time: 5 days
# Method in brief: as §1
# CAMPTOTHECIN [5] = compound: T4, CC[C@@]1(O)C(=O)OCc2c1cc1n(c2=O)Cc2cc3ccccc3nc2-1 [CAMPTOTHECIN]; experiment: as above; conditions: exposure time: 5 days
# Method in brief: as §1
# OSI-906 [6] = compound: T5, C[C@]1(O)C[C@@H](c2nc(-c3ccc4ccc(-c5ccccc5)nc4c3)c3c(N)nccn32)C1 [OSI-906]; experiment: as above; conditions: exposure time: 5 days
# Method in brief: as §1
# [7] = compound: CC(=O)c1c(C)c2cnc(Nc3ccc(N4CCNCC4)cn3)nc2n(C2CCCC2)c1=O; experiment: as above; conditions: exposure time: 5 days
# Method in brief: as §1
# CARBOPLATIN [8] = compound: T6, O=C(O)C1(C(=O)O)CCC1.[NH2-].[NH2-].[Pt+2] [CARBOPLATIN]; experiment: as above; conditions: exposure time: 5 days
# Method in brief: as §1
# PACLITAXEL [9] = compound: T7, CC(=O)O[C@H]1C(=O)[C@@]2(C)[C@H]([C@H](OC(=O)c3ccccc3)[C@]3(O)C[C@H](OC(=O)[C@H](O)[C@@H](NC(=O)c4ccccc4)c4ccccc4)C(C)=C1C3(C)C)[C@]1(OC(C)=O)CO[C@@H]1C[C@@H]2O [PACLITAXEL]; experiment: as above; conditions: exposure time: 5 days
# Method in brief: as §1
# [10] = compound: CC(=O)NCC(=O)N1[C@@H]2CC[C@H]1c1ccc(Nc3ncc(C(F)(F)F)c(NC4CCC4)n3)cc12; experiment: area under dose-response curve of surviving fraction (unscaled, Aref=0) (surviving fraction x log10(nM)); higher = more resistant; conditions: exposure time: 5 days; dose range 0.5-1000 nM
# Method in brief: (§2)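 Inhibitor was applied to tumour cell lines at eight concentrations (0.5 to 1000 nM) for five days in 384-well plates. Luminescence from CellTiter-Glo, scaled to DMSO-only wells, gave surviving fractions in three screens per line, and these were fitted by 3-parameter logistic regression with the drc R package. The area under the curve is an unscaled activity area. Aref was 0, and dose was on a log10 scale.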
# CELECOXIB [11] = compound: T1, CELECOXIB; experiment: as above; conditions: exposure time: 5 days; dose range 0.5-1000 nM
# Method in brief: as §2
# GEFITINIB [12] = compound: T2, GEFITINIB; experiment: as above; conditions: exposure time: 5 days; dose range 0.5-1000 nM
# Method in brief: as §2
# YM155 [13] = compound: T3, YM155; experiment: as above; conditions: exposure time: 5 days; dose range 0.5-1000 nM
# Method in brief: as §2
# CAMPTOTHECIN [14] = compound: T4, CAMPTOTHECIN; experiment: as above; conditions: exposure time: 5 days; dose range 0.5-1000 nM
# Method in brief: as §2
# OSI-906 [15] = compound: T5, OSI-906; experiment: as above; conditions: exposure time: 5 days; dose range 0.5-1000 nM
# Method in brief: as §2
# CARBOPLATIN [16] = compound: T6, CARBOPLATIN; experiment: as above; conditions: exposure time: 5 days; dose range 0.5-1000 nM
# Method in brief: as §2
# PACLITAXEL [17] = compound: T7, PACLITAXEL; experiment: as above; conditions: exposure time: 5 days; dose range 0.5-1000 nM
# Method in brief: as §2
test system,measurement,setting,value
JURKAT HAEMATOPOIETIC AND LYMPHOID TISSUE,surviving fraction,[1]; 0.5 nM,1.07 ± 0.015
same,surviving fraction,[1]; 1 nM,1.06 ± 0.028
same,surviving fraction,[1]; 5 nM,1.07 ± 0.012
same,surviving fraction,[1]; 10 nM,1.03 ± 0.03
same,surviving fraction,[1]; 50 nM,0.286 ± 0.012
same,surviving fraction,[1]; 100 nM,0.677 ± 0.018
same,surviving fraction,[1]; 500 nM,0.395 ± 0.01
same,surviving fraction,[1]; 1000 nM,0.305 ± 0.019
same,surviving fraction,CELECOXIB [2]; 0.5 nM,1.03 ± 0.036
same,surviving fraction,CELECOXIB [2]; 1 nM,1.05 ± 0.032
same,surviving fraction,CELECOXIB [2]; 5 nM,1.03 ± 0.017
same,surviving fraction,CELECOXIB [2]; 10 nM,1.05 ± 0.029
same,surviving fraction,CELECOXIB [2]; 50 nM,0.986 ± 0.034
same,surviving fraction,CELECOXIB [2]; 100 nM,1 ± 0.03
same,surviving fraction,CELECOXIB [2]; 500 nM,1.03 ± 0.013
same,surviving fraction,CELECOXIB [2]; 1000 nM,0.975 ± 0.035
same,surviving fraction,GEFITINIB [3]; 0.5 nM,1.07 ± 0.016
same,surviving fraction,GEFITINIB [3]; 1 nM,1.09 ± 0.041
same,surviving fraction,GEFITINIB [3]; 5 nM,1.062 ± 0.0078
same,surviving fraction,GEFITINIB [3]; 10 nM,1.07 ± 0.021
same,surviving fraction,GEFITINIB [3]; 50 nM,1.05 ± 0.028
same,surviving fraction,GEFITINIB [3]; 100 nM,1.03 ± 0.025
same,surviving fraction,GEFITINIB [3]; 500 nM,1.02 ± 0.018
same,surviving fraction,GEFITINIB [3]; 1000 nM,1.016 ± 0.0051
same,surviving fraction,YM155 [4]; 0.5 nM,1.02 ± 0.062
same,surviving fraction,YM155 [4]; 1 nM,1.033 ± 0.0072
same,surviving fraction,YM155 [4]; 5 nM,0.782 ± 0.015
same,surviving fraction,YM155 [4]; 10 nM,0.445 ± 0.014
same,surviving fraction,YM155 [4]; 50 nM,0.0363 ± 0.00058
same,surviving fraction,YM155 [4]; 100 nM,0.029
same,surviving fraction,YM155 [4]; 500 nM,0.027
same,surviving fraction,YM155 [4]; 1000 nM,0.0317 ± 0.00058
same,surviving fraction,CAMPTOTHECIN [5]; 0.5 nM,0.928 ± 0.043
same,surviving fraction,CAMPTOTHECIN [5]; 1 nM,0.902 ± 0.025
same,surviving fraction,CAMPTOTHECIN [5]; 5 nM,0.282 ± 0.011
same,surviving fraction,CAMPTOTHECIN [5]; 10 nM,0.0237 ± 0.0015
same,surviving fraction,CAMPTOTHECIN [5]; 50 nM,0.0293 ± 0.00058
same,surviving fraction,CAMPTOTHECIN [5]; 100 nM,0.0247 ± 0.00058
same,surviving fraction,CAMPTOTHECIN [5]; 500 nM,0.0203 ± 0.00058
same,surviving fraction,CAMPTOTHECIN [5]; 1000 nM,0.0253 ± 0.0011
same,surviving fraction,OSI-906 [6]; 0.5 nM,0.966 ± 0.033
same,surviving fraction,OSI-906 [6]; 1 nM,0.971 ± 0.013
same,surviving fraction,OSI-906 [6]; 5 nM,0.998 ± 0.032
same,surviving fraction,OSI-906 [6]; 10 nM,0.9753 ± 0.009
same,surviving fraction,OSI-906 [6]; 50 nM,0.98 ± 0.067
same,surviving fraction,OSI-906 [6]; 100 nM,0.965 ± 0.039
same,surviving fraction,OSI-906 [6]; 500 nM,1.02 ± 0.012
same,surviving fraction,OSI-906 [6]; 1000 nM,0.99 ± 0.021
same,surviving fraction,[7]; 0.5 nM,1.09 ± 0.017
same,surviving fraction,[7]; 1 nM,1.11 ± 0.021
same,surviving fraction,[7]; 5 nM,1.0573 ± 0.00058
same,surviving fraction,[7]; 10 nM,1.07 ± 0.033
same,surviving fraction,[7]; 50 nM,1.03 ± 0.034
same,surviving fraction,[7]; 100 nM,1.05 ± 0.013
same,surviving fraction,[7]; 500 nM,0.847 ± 0.032
same,surviving fraction,[7]; 1000 nM,0.793 ± 0.018
same,surviving fraction,CARBOPLATIN [8]; 0.5 nM,1 ± 0.021
same,surviving fraction,CARBOPLATIN [8]; 1 nM,1.05 ± 0.043
same,surviving fraction,CARBOPLATIN [8]; 5 nM,1 ± 0.025
same,surviving fraction,CARBOPLATIN [8]; 10 nM,1.03 ± 0.012
same,surviving fraction,CARBOPLATIN [8]; 50 nM,1 ± 0.039
same,surviving fraction,CARBOPLATIN [8]; 100 nM,1.07 ± 0.031
same,surviving fraction,CARBOPLATIN [8]; 500 nM,1.01 ± 0.042
same,surviving fraction,CARBOPLATIN [8]; 1000 nM,1.04 ± 0.019
same,surviving fraction,PACLITAXEL [9]; 0.5 nM,1.01 ± 0.024
same,surviving fraction,PACLITAXEL [9]; 1 nM,0.675 ± 0.042
same,surviving fraction,PACLITAXEL [9]; 5 nM,0.0347 ± 0.0021
same,surviving fraction,PACLITAXEL [9]; 10 nM,0.03 ± 0.001
same,surviving fraction,PACLITAXEL [9]; 50 nM,0.0297 ± 0.0011
same,surviving fraction,PACLITAXEL [9]; 100 nM,0.0237 ± 0.00058
same,surviving fraction,PACLITAXEL [9]; 500 nM,0.02 ± 0.001
same,surviving fraction,PACLITAXEL [9]; 1000 nM,0.0213 ± 0.00058
same,area under dose-response curve,[10],2.31
same,area under dose-response curve,CELECOXIB [11],3.37
same,area under dose-response curve,GEFITINIB [12],3.46
same,area under dose-response curve,YM155 [13],1.3
same,area under dose-response curve,CAMPTOTHECIN [14],0.802
same,area under dose-response curve,OSI-906 [15],3.25
same,area under dose-response curve,CARBOPLATIN [16],3.39
same,area under dose-response curve,PACLITAXEL [17],0.401
